Assay results: ChEMBL document CHEMBL3091293, “The synthesis and biodistribution of [(11)C]metformin as a PET probe to study hepatobiliary transport mediated by the multi-drug and toxin extrusion transporter 1 (MATE1) in vivo” (Bioorg Med Chem, 2013)

Key:
Plasma [1] = assay: Unbound plasma concentration in ddY mouse at 5 mg/kg; format: ADME, organism-based; parameters: dose 5 mg/kg; details: in vivo
[2] = target: T1, Multidrug and toxin extrusion protein 1 (Mus musculus, UniProt Q8K0H1); assay: Inhibition of mouse Mate1 transfected in HEK293 cells assessed as uptake of [14C]-TEA preincubated for 15 mins by liquid scintillation counting analysis; format: cell-based
T1 sequence (Q8K0H1 whole entry): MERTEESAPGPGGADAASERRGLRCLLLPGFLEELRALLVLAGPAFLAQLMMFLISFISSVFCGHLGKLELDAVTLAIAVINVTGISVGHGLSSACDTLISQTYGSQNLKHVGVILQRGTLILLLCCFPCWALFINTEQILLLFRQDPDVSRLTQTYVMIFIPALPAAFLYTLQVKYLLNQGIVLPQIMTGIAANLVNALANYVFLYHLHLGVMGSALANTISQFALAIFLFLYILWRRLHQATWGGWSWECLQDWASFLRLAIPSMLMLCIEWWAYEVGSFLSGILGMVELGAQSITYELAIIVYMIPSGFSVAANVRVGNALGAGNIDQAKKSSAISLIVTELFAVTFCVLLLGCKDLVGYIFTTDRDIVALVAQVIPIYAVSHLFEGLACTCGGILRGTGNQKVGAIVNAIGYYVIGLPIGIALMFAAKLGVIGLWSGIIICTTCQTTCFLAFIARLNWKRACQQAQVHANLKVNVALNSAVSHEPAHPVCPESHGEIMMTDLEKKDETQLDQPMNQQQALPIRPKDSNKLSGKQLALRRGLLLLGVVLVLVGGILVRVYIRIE

[3] = target: T2, Solute carrier family 22 member 1 (Mus musculus, UniProt O08966); assay: Inhibition of mouse Oct1 transfected in HEK293 cells assessed as uptake of [14C]-TEA preincubated for 15 mins by liquid scintillation counting analysis; format: cell-based
T2 sequence (O08966 whole entry): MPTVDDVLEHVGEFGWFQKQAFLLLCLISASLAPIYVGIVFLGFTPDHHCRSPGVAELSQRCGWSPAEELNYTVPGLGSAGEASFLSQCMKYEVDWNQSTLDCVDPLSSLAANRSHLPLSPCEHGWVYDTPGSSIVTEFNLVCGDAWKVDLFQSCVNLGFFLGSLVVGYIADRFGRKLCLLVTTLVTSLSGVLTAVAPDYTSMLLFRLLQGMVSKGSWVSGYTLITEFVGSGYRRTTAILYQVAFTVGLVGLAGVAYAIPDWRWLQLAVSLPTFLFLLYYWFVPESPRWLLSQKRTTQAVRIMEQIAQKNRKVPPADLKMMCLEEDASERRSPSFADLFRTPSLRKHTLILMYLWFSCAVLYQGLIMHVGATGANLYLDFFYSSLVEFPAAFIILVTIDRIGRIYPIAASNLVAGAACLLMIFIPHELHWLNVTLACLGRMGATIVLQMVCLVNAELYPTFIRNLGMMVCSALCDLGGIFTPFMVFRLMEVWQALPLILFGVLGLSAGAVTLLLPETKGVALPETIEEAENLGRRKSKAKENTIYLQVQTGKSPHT

Plasma [4] = assay: Plasma concentration in ddY mouse at 5 mg/kg; format: ADME, organism-based; parameters: dose 5 mg/kg; details: in vivo

Cp(f) (Plasma [1]): 0.3 µM
Ki [3]: 3600 nM
concentration (Plasma [4]): 3.7 µM
SMILES: CCc1nc(N)nc(N)c1-c1ccc(Cl)cc1 [PYRIMETHAMINE]
Ki [2]: 145 nM
